Test [1] deals with T1, mushroom tyrosinase (Agaricus bisporus, UniProt C7FF04). Nature of the test: Enzyme kinetic analysis with tyrosinase (Lineweaver-Burk and Dixon plots, L-tyrosine substrate). Format: biochemical. The conditions noted are these: for Inhibition Mode: Lineweaver–Burk plot, L-tyrosine substrate (monophenolase). On the procedure: Kinetic analysis was employed to verify the inhibitory activity of the active compounds and identify the type of inhibition. KG and MG were potent tyrosinase inhibitors as analyzed by Lineweaver–Burk and Dixon plots (Figure 3 and Figure 4). Different concentrations of the substrate (L-tyrosine, 1.0, 0.5, and 0.25 mM) along with the various concentrations of KG (10, 50, and 100 µM) and MG ([…]) were analyzed. […] The Ki values represent the concentrations required to form an enzyme inhibitor complex, so inhibitors with lower Ki values indicate greater tyrosinase inhibition activity for the development of prophylactic and therapeutic agents.
T1 sequence (C7FF04 2-392): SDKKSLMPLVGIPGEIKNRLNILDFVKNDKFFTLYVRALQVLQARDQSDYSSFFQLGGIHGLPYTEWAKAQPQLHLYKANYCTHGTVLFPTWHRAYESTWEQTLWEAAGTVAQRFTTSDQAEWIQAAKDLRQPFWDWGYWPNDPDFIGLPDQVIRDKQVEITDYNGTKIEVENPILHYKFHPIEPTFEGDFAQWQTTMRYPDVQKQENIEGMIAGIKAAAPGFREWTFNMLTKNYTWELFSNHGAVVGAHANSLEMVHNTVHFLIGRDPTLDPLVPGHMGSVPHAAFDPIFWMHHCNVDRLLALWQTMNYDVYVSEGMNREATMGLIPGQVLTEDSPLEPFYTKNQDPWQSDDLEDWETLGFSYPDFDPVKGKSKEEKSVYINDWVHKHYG
We observed the sample activity by decreasing the L-tyrosine (1.0, 0.5, and 0.25 mM) substrate concentration to determine the tyrosinase inhibitory mechanism. The reaction mixture consisted of a 20 µL test sample at the following test concentrations: 1.6, 8, and 16 µM for MG; 10, 50, and 100 µM for KG. Tyrosinase inhibition was determined at various concentrations of L-tyrosine substrate (1.0, 0.5, and 0.25 mM) in the absence or presence of the test compound concentrations (1.6, 8, and 16 µM for MG; 10, 50, and 100 µM for KG) using Lineweaver-Burk double reciprocal plots that determine enzyme kinetic parameters including Km and Vmax. The enzymatic procedures consisted of the previously described tyrosinase assay methods. The inhibition constant (Ki) was determined from the interpretation of Dixon plots.

Test [2] has as its target mushroom tyrosinase. Set-up: method as in ref 12 (Zheng et al.). Particulars: L-tyrosine substrate; ref 12 (Zheng et al.); read-out: IC50, L-tyrosine oxidation (monophenolase); cited from earlier work.
In test [3] the target is T1, mushroom tyrosinase. Nature of the test: Mushroom tyrosinase inhibitory assay, L-tyrosine oxidation (monophenolase activity). In kind it is biochemical. The arrangement: purchased Sigma-Aldrich Co. (St. Louis, MO, USA). On the procedure:
(§1) Briefly, 10 µL of a specified concentration of each sample solution (1–500 µg/mL) in 10% dimethyl sulfoxide and 20 µL of mushroom tyrosinase (1000 Units/mL) in a 50 mM phosphate buffer (pH 6.5) were added to 170 µL of an assay mixture in a 96-well microplate. […] The reaction mixtures were incubated at 25 °C for 15 s. The absorbance of the mixture at 490 nm was measured using a microplate reader. […] One unit (U) of enzymatic activity referred to the amount of an enzyme capable of converting 1 µM of the L-tyrosine/L-DOPA reaction mixture within 1 min at 280 nm under the specific conditions (25 °C, optimum conditions).

Test [4] deals with T1, mushroom tyrosinase. Nature of the test: Mushroom tyrosinase inhibitory assay, L-DOPA oxidation (diphenolase activity). In kind it is biochemical. Set-up: purchased Sigma-Aldrich Co. (St. Louis, MO, USA). The conditions noted are these: L-DOPA substrate (diphenolase), 25 °C, pH 6.5, mean ± SEM of triplicate. On the procedure:
as §1

Test [5] deals with mushroom tyrosinase. Set-up: method as in ref 13 (Chaita et al.). The conditions noted are these: L-DOPA substrate; ref 13 (Chaita et al.); read-out: IC50, mushroom tyrosinase via the L-DOPA pathway; cited from earlier work.
The test system of a further test is B16F10 cells. Set-up: method as in PMID 25819153. The conditions noted are these: 150 µM; cited from earlier work.
A further test has as its system tyrosinase. The conditions noted are these: cited from earlier work.
Setting [6] is: L-tyrosine substrate (monophenolase), 25 °C, pH 6.5, mean ± SEM of triplicate, read-out: IC50 (μM) Value L-Tyrosine.
Setting [7] is: read-out: IC50 (μM) Value L-DOPA.

SMILES strings stand for the structures. Read-outs that look alike come from different tables or passages of the source.

For orientation: Ki means a measure of affinity in units of concentration, obtained from inhibition or displacement. For orientation: IC50 means the concentration needed to halve the response being measured.

Regarding `CC1=C[C@H]2c3c(O)cc(-c4cc5ccc(O)cc5o4)cc3O[C@@]3(c4ccc(O)cc4O)Oc4cc(O)ccc4[C@H](C1)[C@@H]23` [Mulberrofuran G], at mushroom tyrosinase [1] (Dixon plot, L-tyrosine substrate, read-out: Inhibition Constant (Ki)), the inhibition constant (Ki) is 5.19 µM. Further, the “Inhibition Mode” value on mushroom tyrosinase [1] is “Competitive”. Moreover, the IC50 is 17.5 µM on mushroom tyrosinase [2], 6.35 ± 0.45 µM on mushroom tyrosinase [3] (setting [6]) and 106 µM on mushroom tyrosinase [4] (setting [7]).

As for `CC1=CCCCC1` [1-Methyl-1-cyclohexene, reference compound], the IC50 on mushroom tyrosinase [3] (setting [6]) and on mushroom tyrosinase [4] (setting [7]) was greater than 1000 µM each time.

In turn, `CC(C)=CCc1c(-c2ccc(O)cc2O)oc2c(C3C=C(C)CC(c4ccc(O)cc4O)C3C(=O)c3ccc(O)cc3O)c(O)cc(O)c2c1=O` (centres unmarked) [Kuwanon G] came in with a Ki on mushroom tyrosinase [1] of 18.7 µM. Moreover, the “Inhibition Mode” value on mushroom tyrosinase [1] is “Competitive”. Further, the IC50 at mushroom tyrosinase [2] is greater than 200 µM; on mushroom tyrosinase [5], 27.2 µM; against mushroom tyrosinase [3], 67.6 ± 2.11 µM; at mushroom tyrosinase [4] (IC50 (μM) Value L-DOPA), 44 µM.

Regarding `C=C1CC/C=C(\C)CC[C@@H]2[C@@H]1CC2(C)C` [β-caryophyllene], in the test with B16F10 cells, the intracellular tyrosinase activity result is recorded as “decreased”.

As to `O=C(O)/C=C/c1ccccc1` [Cinnamic acid], the “inhibition type toward tyrosinase” value in the test with tyrosinase (interacted with secondary binding sites when catalytic pocket occupied with tropolone, ref 34 (Hassani et al.)) was “mixed type inhibitor”.

For the compound `O=c1cc(CO)occ1O` [Kojic acid], in the test with tyrosinase, the “inhibition type toward tyrosinase” value is given as “selective competitive inhibitor”.

Turning to `Cc1cc2c3c(c1)-c1c(O)cc(-c4cc5ccc(O)cc5o4)cc1OC3(c1ccc(O)cc1O)Oc1cc(O)ccc1-2` (centres unmarked) [Albanol B], the “IC50 (μM) Value L-Tyrosine” value against mushroom tyrosinase [3] (L-tyrosine substrate (monophenolase), 25 °C, pH 6.5, mean ± SEM of triplicate) is “inactive”. The IC50 on mushroom tyrosinase [3] (setting [6]) and at mushroom tyrosinase [4] (setting [7]) was greater than 350 µM in each case. Also, the “IC50 (μM) Value L-DOPA” value against mushroom tyrosinase [4] is “inactive”.

The values above are taken from publication PMC6099663, “Structure–Activity Relationship of the Tyrosinase Inhibitors Kuwanon G, Mulberrofuran G, and Albanol B from Morus Species: A Kinetics and Molecular Docking Study” (Molecules : A Journal of Synthetic Chemistry and Natural …, 2018).
